In brackets after ≈: the same amount, converted by molar mass.
Tests used:
leukemia l1210 cell line = system: leukemia l1210 cell line; set-up: method as in doi:10.22146/ijc.21576; conditions: isolated from the bark of Mahkota Dewa; cited from earlier work
[1] = molecular target: T1, angiotensin-converting enzyme (ACE) (Homo sapiens, UniProt P12821); experiment: In-vitro ACE inhibitor activity assay (HHL substrate, hippuric acid read at 228 nm); format: biochemical; conditions: for inhibition at 1.25 µg/mL: ACE inhibition at a concentration of 1.25 μg/ml, read-out: inhibitory activity ± SD (%); for IC50: ACE inhibition, purified compounds and captopril, read-out: IC50 ± SD (μg/mL) (converted)
Method: This assay was conducted on extract, fraction and three purified compounds using captopril as a positive control at the concentration of 0,01, 0,05, 0,5, 1,25 dan 6,25 mM. In a test tube, 50 μL of the solution assay was added with 50 μL of 8 mM hippuryl-histidyl-leucine (HHL) substrate solution and pre-incubated at 37 °C for 10 minutes, followed by the addition of 100 μL of the ACE, homogenization by vortex mixer, and incubation for 90 minutes at 37 °C. Further, 250 μL of 1 N HCl was added to the mixture to stop the enzymatic reaction. The hippuric acid was produced, while the enzymatic reaction was extracted by 1.5 mL ethyl acetate and later separated from the mixture by centrifugation. The mixture was then concentrated by heating at 100 °C and dispersed in 3 mL of demineralized aqueous to have its absorbance measured by spectrophotometer at 228 nm. The hippuric acid concentration was utilized to calculate the percentage of inhibition (%), and the IC50 value was then calculated using the percentage inhibition obtained. […] An inhibition kinetics test was employed to determine the inhibition mechanism of these compounds. It was performed type of Inhibition was determined by the Lineweaver-Burk method to acquire the Michaelis-Menten kinetic constant. The Michaelis-Menten kinetic constant (Km) is assessed based on the regression equation y = a + bx, in which x is the substrate concentration [S], and y is the absorbance of the sample [18].
Additionally, most chemicals originating from plants positively affect other aspects of normal metabolism. […] The activity of ACE inhibition from medicines or plant extracts can be detected using various ACE inhibitory activity assay methods. Using a substrate of hippuryl-histidyl-leucine (HHL), we used the Cushman and Cheung approach to the data from this study. The ACE will hydrolyze HHL into hippuric acid (HA). A UV-visible spectrophotometer was used to measure the HA at a wavelength of 228 nm to describe the ACE activity. […] Most ACE inhibitory plant metabolites are peptides, protein hydrolysates, phenolics, flavonoids, terpenoids, and alkaloids.

[2] = molecular target: T1, angiotensin-converting enzyme (ACE); experiment: Enzyme inhibition kinetics of ACE (Lineweaver-Burk plot); format: biochemical; conditions: for type of inhibition kinetics: Lineweaver-Burk, HHL substrate 4, 6, 8, 10 and 12 μg/ml
Method: This assay was conducted on extract, fraction and three purified compounds using captopril as a positive control at the concentration of 0,01, 0,05, 0,5, 1,25 dan 6,25 mM. In a test tube, 50 μL of the solution assay was added with 50 μL of 8 mM hippuryl-histidyl-leucine (HHL) substrate solution and pre-incubated at 37 °C for 10 minutes, followed by the addition of 100 μL of the ACE, homogenization by vortex mixer, and incubation for 90 minutes at 37 °C. Further, 250 μL of 1 N HCl was added to the mixture to stop the enzymatic reaction. The hippuric acid was produced, while the enzymatic reaction was extracted by 1.5 mL ethyl acetate and later separated from the mixture by centrifugation. The mixture was then concentrated by heating at 100 °C and dispersed in 3 mL of demineralized aqueous to have its absorbance measured by spectrophotometer at 228 nm. The hippuric acid concentration was utilized to calculate the percentage of inhibition (%), and the IC50 value was then calculated using the percentage inhibition obtained. The IC50 value was determined as the peptide concentration in mg/mL was demanded to reduce 50% of ACE activity by regression analysis of the ACE inhibition versus ACE concentration percentage. The examination of the kinetics of enzyme inhibition was carried out at several concentrations of HHL substrates, which are 4, 6, 8, 10, and 12 μg/ml. The samples administered were compound with the lowest IC50 value. An inhibition kinetics test was employed to determine the inhibition mechanism of these compounds. It was performed type of Inhibition was determined by the Lineweaver-Burk method to acquire the Michaelis-Menten kinetic constant. The Michaelis-Menten kinetic constant (Km) is assessed based on the regression equation y = a + bx, in which x is the substrate concentration [S], and y is the absorbance of the sample [18].
Kinetic analysis of ACE inhibition was conducted by administering the Lineweaver-Burk plot (Fig. 4). […] The Lineweaver-Burk graph is generated from relationship of 1/[S] to 1/V.
The active compound with the smallest IC50 value was examined for enzyme inhibition kinetics. […] However, the Km values are different based on the calculation results of the Michaelis-Menten constant. […] Competitive inhibitors compete with the substrate for the enzyme’s active site so that the enzyme cannot produce an enzyme-substrate complex. However, when the concentration of the competitive inhibitor is greater than that of the substrate, it binds to the active binding site to form an enzyme inhibitor complex (EI), which ultimately prevents the formation of any product. In a typical enzymatic reaction, Vmax is the reaction’s maximal rate. Km, also known as the Michaelis-Menten constant, is the substrate concentration halfway between Vmax and Km. […]

T1 sequence (P12821 30-1306, species assumed): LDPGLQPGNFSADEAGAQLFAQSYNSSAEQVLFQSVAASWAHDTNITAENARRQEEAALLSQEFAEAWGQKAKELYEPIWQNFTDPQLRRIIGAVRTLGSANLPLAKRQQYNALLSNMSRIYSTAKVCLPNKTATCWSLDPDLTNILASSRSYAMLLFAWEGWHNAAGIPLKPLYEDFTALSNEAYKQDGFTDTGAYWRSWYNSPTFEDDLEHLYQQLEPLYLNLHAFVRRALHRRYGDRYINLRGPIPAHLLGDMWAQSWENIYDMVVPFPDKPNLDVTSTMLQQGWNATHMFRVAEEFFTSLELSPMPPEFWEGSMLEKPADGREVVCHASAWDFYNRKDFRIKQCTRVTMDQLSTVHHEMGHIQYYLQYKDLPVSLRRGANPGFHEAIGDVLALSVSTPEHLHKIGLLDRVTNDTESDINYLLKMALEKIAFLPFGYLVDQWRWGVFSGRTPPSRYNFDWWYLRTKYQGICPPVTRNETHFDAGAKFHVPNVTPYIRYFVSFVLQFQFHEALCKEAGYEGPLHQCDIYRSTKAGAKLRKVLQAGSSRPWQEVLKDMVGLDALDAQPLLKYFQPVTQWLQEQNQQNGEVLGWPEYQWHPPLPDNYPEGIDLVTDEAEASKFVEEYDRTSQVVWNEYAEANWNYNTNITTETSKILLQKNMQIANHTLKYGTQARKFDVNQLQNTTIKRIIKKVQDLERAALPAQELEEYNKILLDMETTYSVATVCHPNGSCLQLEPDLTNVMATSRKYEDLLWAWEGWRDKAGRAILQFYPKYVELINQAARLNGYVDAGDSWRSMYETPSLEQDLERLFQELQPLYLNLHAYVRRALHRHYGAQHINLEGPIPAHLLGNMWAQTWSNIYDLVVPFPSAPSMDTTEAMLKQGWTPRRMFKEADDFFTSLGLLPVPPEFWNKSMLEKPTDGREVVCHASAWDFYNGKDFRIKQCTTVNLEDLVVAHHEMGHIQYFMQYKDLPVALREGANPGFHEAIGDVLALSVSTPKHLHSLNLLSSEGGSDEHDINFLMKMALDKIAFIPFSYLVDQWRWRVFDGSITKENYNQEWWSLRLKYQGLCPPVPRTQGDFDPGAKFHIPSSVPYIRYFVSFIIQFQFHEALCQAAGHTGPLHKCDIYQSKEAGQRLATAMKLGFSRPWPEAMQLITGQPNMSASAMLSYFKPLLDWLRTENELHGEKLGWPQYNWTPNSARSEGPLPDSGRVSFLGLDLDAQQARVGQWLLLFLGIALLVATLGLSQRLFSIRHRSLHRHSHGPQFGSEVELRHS

Structure (SMILES) | IC50 (leukemia l1210 cell line) [µg/mL] | inhibition at 1.25 µg/mL [1] [%] | IC50 [1] [nM] | Vmax, isolate versus without inhibitor ([2]; Lineweaver-Burk plot, Fig. 4) | type of inhibition kinetics ([2]; listed as compound 3) | type of inhibition kinetics ([2]; listed as mangiferin) | Km, isolate versus without inhibitor ([2]; Michaelis-Menten constant, Fig. 4)
COc1cc(O)c(C(=O)c2ccc(O)cc2)c(OC2OC(CO)C(O)C(O)C2O)c1 [6,4′-dihydroxy-6-methoxybenzophenone-2-O-β-D-glucopyranoside] | 5.1 (≈ 12.1 µM) |  |  |  |  |  | 
O=c1c2cc(O)c(O)cc2oc2cc(O)c([C@@H]3O[C@H](CO)[C@@H](O)[C@H](O)[C@H]3O)c(O)c12 [Compound 3, mangiferin] |  | 86.99 ± 0.02 | 59.2 | almost the same | competitively inhibiting | competitive inhibition | different
COc1cc(O)cc(OC2OC(CO)C(O)C(O)C2O)c1C(=O)c1ccc(O)cc1 [Compound 2, 4,4′-dihydroxy-6-methoxybenzophenone-2-O-β-D-glucopyranoside] |  | 85.17 ± 0.23 | 166 |  |  |  | 
COc1cc(O)c(C(=O)c2ccc(O)cc2)c(OC2OC(CO)C(O)C(O)C2O)c1 [Compound 1, 6,4′-dihydroxy-4-methoxybenzophenone-2-O-β-D-glucopyranoside] |  | 77.48 ± 0.5 | 130 |  |  |  | 
